Experimental data: EPA's ToxValDB 9.5 (doi:10.2903/j.efsa.2017.4976)
In brackets after ≈: the same amount, converted by molar mass.

Experiments:
Colinus virginianus = settings: for LD50: acute, oral, mortality
Tagia sp. = settings: chronic/long-term; growth
Oryctolagus sp. = settings: reproduction developmental
Apis mellifera = settings: acute, mortality
Hypoaspis aculeifer = settings: chronic/long-term; mortality
Rattus norvegicus = settings: acute; oral; mortality
Elodea callitrichoides = settings: chronic/long-term; duration: 42 days
Daphnia magna = settings: chronic/long-term; duration: 21 days; reproduction

CNC1=C(c2cccc(C(F)(F)F)c2)C(=O)C(c2ccccc2)O1 (stereo not drawn) [Flurtamone]
LD50 (Colinus virginianus; diet): > 1580 mg/kg-day | LD50 (Colinus virginianus): > 2530 mg/kg | NOEL (Colinus virginianus; reproduction developmental): 7.3 mg/kg-day | NOEC (Tagia sp.): 47.5 mg/kg | NOAEL (Oryctolagus sp.): 20 mg/kg-day | LD50 (Apis mellifera; dermal): > 100 µg/piece | LD50 (Apis mellifera; oral, unspecified): > 105 µg/piece | LC50 (Pimephales promelas; acute, duration: 96 hours, oral, feed, mortality): 6.64 µg/mL (≈ 19.9 µM) | NOEC (Pimephales promelas; chronic/long-term, growth): 0.188 mg/L | NOEC (Hypoaspis aculeifer): 89 mg/kg | LD50 (Rattus norvegicus): > 5000 mg/kg-day | NOEC (Elodea callitrichoides): 0.001 mg/L | NOEC (Daphnia magna): 0.071 mg/L
